Positions of bridges follow the written chain, without caps; N, C: chain ends. Non-standard residues stand in square brackets, D forms with d. Residues, ends and D or L forms follow the SMILES beside them. *: point of attachment. Phe(4-CF3) = N[C@@H](Cc1ccc(C(F)(F)F)cc1)C(=O)O; NMePhe(3-Cl) = CN[C@@H](Cc1cccc(Cl)c1)C(=O)O; NMeF = CN[C@@H](Cc1ccccc1)C(=O)O; NMeI = CC[C@H](C)[C@H](NC)C(=O)O; 3Pal = N[C@@H](Cc1cccnc1)C(=O)O; NMeD = CN[C@@H](CC(=O)O)C(=O)O; NMeL = CN[C@@H](CC(C)C)C(=O)O; NMeV = CN[C@H](C(=O)O)C(C)C; NMeA = CN[C@@H](C)C(=O)O; Piperidide = C1CCN(*)CC1; Abu = CC[C@H](N)C(=O)O; NPrGly = CCCNCC(=O)O; Sar = CNCC(=O)O; tBu = CC(C)(C)*
Assay: Caco-2 membrane permeability, improved method as used in the following Examples (96-well, 20 to 24 h preincubation)
Format: in vitro ADME
Conditions: human, Caco-2, Caco-2 (cm/sec)
Method in brief: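 Papp (cm/sec) was derived from LC/MS of basal samples collected 180 min after apical dosing in FaSSIF/HBSS pH 6.0 with 1% DMSO, against a basal HBSS pH 7.4 receiver containing 4% BSA. Three-week Caco-2 cultures were first preincubated with compound in DMEM+FaSSIF at 37 °C for 20–24 h.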
Compound `CC(C)C[C@@H]1NC(=O)[C@H](CC(C)C)N(C)C(=O)[C@H](C(C)C)NC(=O)C[C@@H](C(=O)N2CCCCC2)NC(=O)[C@H](CC(C)C)N(C)C(=O)[C@H](Cc2ccccc2)N(C)C(=O)[C@H]([C@@H](C)O)NC(=O)[C@H](Cc2ccc(C(F)(F)F)cc2)NC(=O)[C@H](C)N(C)C1=O` [pd145] (V[NMeL]L[NMeA][Phe(4-CF3)]T[NMeF][NMeL]D-Piperidide; lactam N-9) has a Papp A→B at 180 min of 1.2 ×10⁻⁶ cm/s. With `CC(C)C[C@@H]1NC(=O)[C@H](CC(C)C)N(C)C(=O)[C@H](CC(C)C)N(C)C(=O)CN(C)C(=O)[C@H]([C@@H](C)O)NC(=O)[C@H](CC(C)C)N(C)C(=O)[C@H](CC(C)C)N(C)C(=O)[C@H](Cc2ccc(C(F)(F)F)cc2)NC(=O)[C@@H](C(C)C)NC(=O)C[C@@H](C(=O)N2CCCCC2)NC1=O` [pd148] ([dV][Phe(4-CF3)][NMeL][NMeL]T[Sar][NMeL][NMeL]LD-Piperidide; lactam N-10) the Papp A→B at 180 min was 1.1 ×10⁻⁶ cm/s. For `CC(C)C[C@@H]1NC(=O)[C@H](CC(C)C)N(C)C(=O)[C@@H](C)NC(=O)C[C@@H](C(=O)N2CCCCC2)N(C)C(=O)[C@H](CC(C)C)N(C)C(=O)[C@H]([C@@H](C)O)NC(=O)[C@H](CC(C)C)N(C)C(=O)[C@H](Cc2ccc(C(F)(F)F)cc2)NC1=O` [pd149] ([dA][NMeL]L[Phe(4-CF3)][NMeL]T[NMeL][NMeD]-Piperidide; lactam N-8), the Papp A→B at 180 min was 1.7 ×10⁻⁶ cm/s. Compound `CC(C)C[C@H]1C(=O)N(C)CC(=O)N[C@@H](Cc2ccccc2)C(=O)N[C@@H](Cc2ccc(C(F)(F)F)cc2)C(=O)N(C)[C@@H](CC(C)C)C(=O)N(C)[C@@H](CC(C)C)C(=O)N[C@@H]([C@@H](C)O)C(=O)N(C)[C@H](C(=O)N2CCCCC2)CC(=O)N1C` [pd150] ([NMeL][Sar]F[Phe(4-CF3)][NMeL][NMeL]T[NMeD]-Piperidide; lactam N-8) has a Papp A→B at 180 min of 1.7 ×10⁻⁶ cm/s. In the case of `CC(C)C[C@@H]1NC(=O)C[C@@H](C(=O)N2CCCCC2)N(C)C(=O)[C@H](Cc2ccc(C(F)(F)F)cc2)NC(=O)[C@H](CC(C)C)N(C)C(=O)CN(C)C(=O)[C@H]([C@@H](C)O)NC(=O)[C@H](CC(C)C)N(C)C(=O)[C@H](CC(C)C)N(C)C1=O` [pd151] (L[NMeL][NMeL]T[Sar][NMeL][Phe(4-CF3)][NMeD]-Piperidide; lactam N-8), the Papp A→B at 180 min is reported as 3.2 ×10⁻⁶ cm/s. `CCCN1CC(=O)N(C)[C@@H](CC(C)C)C(=O)N[C@@H](COC(C)(C)C)C(=O)N[C@H](C(=O)N2CCCCC2)CC(=O)N(C)[C@@H](CC(C)C)C(=O)N[C@@H](Cc2ccc(C(F)(F)F)cc2)C(=O)N(C)[C@@H](CC(C)C)C(=O)N(C)[C@@H]([C@@H](C)CC)C(=O)N[C@@H]([C@@H](C)O)C1=O` [pd152] ([NMeL][Phe(4-CF3)][NMeL][NMeI]T[NPrGly][NMeL]S(tBu)D-Piperidide; lactam N-9) showed a Papp A→B at 180 min of 1.2 ×10⁻⁶ cm/s. For `CC(C)C[C@@H]1NC(=O)C[C@@H](C(=O)N2CCCCC2)NC(=O)[C@H](CC(C)C)N(C)C(=O)[C@H](CC(C)C)N(C)C(=O)[C@H](Cc2ccc(C(F)(F)F)cc2)NC(=O)[C@H](CC(C)C)N(C)C(=O)[C@H]([C@@H](C)O)NC(=O)[C@H](CC(C)C)N(C)C(=O)[C@H](C)N(C)C1=O` [pd153] (L[NMeA][NMeL]T[NMeL][Phe(4-CF3)][NMeL][NMeL]D-Piperidide; lactam N-9), the Papp A→B at 180 min was 1.4 ×10⁻⁶ cm/s. For `CC(C)C[C@H]1C(=O)N[C@@H](COC(C)(C)C)C(=O)N(C)[C@@H](Cc2ccccc2)C(=O)N(C)[C@@H](CC(C)C)C(=O)N[C@H](C(=O)N2CCCCC2)CC(=O)N[C@@H](C)C(=O)N(C)[C@@H](Cc2cccc(Cl)c2)C(=O)N[C@@H](C(C)C)C(=O)N(C)[C@@H](C(C)C)C(=O)N[C@@H]([C@@H](C)O)C(=O)N(C)CC(=O)N1C` [pd154] (A[NMePhe(3-Cl)]V[NMeV]T[Sar][NMeL]S(tBu)[NMeF][NMeL]D-Piperidide; lactam N-11), the Papp A→B at 180 min was 1.4 ×10⁻⁶ cm/s. `CC(C)C[C@H]1C(=O)N[C@@H](COC(C)(C)C)C(=O)N(C)[C@@H](Cc2ccccc2)C(=O)N(C)[C@@H](CC(C)C)C(=O)N[C@H](C(=O)N2CCCCC2)CC(=O)N2CCC[C@@H]2C(=O)N(C)[C@@H](Cc2cccc(Cl)c2)C(=O)N[C@@H](C(C)C)C(=O)N(C)[C@@H](C(C)C)C(=O)N[C@@H]([C@@H](C)O)C(=O)N(C)CC(=O)N1C` [pd155] ([dP][NMePhe(3-Cl)]V[NMeV]T[Sar][NMeL]S(tBu)[NMeF][NMeL]D-Piperidide; lactam N-11) showed a Papp A→B at 180 min of 2.1 ×10⁻⁶ cm/s. With `CC(C)C[C@H]1C(=O)N[C@@H](COC(C)(C)C)C(=O)N(C)[C@@H](Cc2ccccc2)C(=O)N(C)[C@@H](CC(C)C)C(=O)N[C@H](C(=O)N2CCCCC2)CC(=O)N2CCC[C@H]2C(=O)N(C)[C@@H](Cc2cccc(Cl)c2)C(=O)N[C@@H](C(C)C)C(=O)N(C)[C@@H](C(C)C)C(=O)N[C@@H]([C@@H](C)O)C(=O)N(C)CC(=O)N1C` [pd156] (P[NMePhe(3-Cl)]V[NMeV]T[Sar][NMeL]S(tBu)[NMeF][NMeL]D-Piperidide; lactam N-11) the Papp A→B at 180 min was 2.9 ×10⁻⁶ cm/s. Work on `CC(C)C[C@@H]1NC(=O)[C@H](Cc2cccc(Cl)c2)N(C)C(=O)[C@@H](C)NC(=O)C[C@@H](C(=O)N2CCCCC2)NC(=O)[C@H](CC(C)C)N(C)C(=O)[C@H](Cc2ccccc2)N(C)C(=O)[C@H](COC(C)(C)C)NC(=O)[C@H](C(C)C)N(C)C(=O)CN(C)C(=O)[C@H]([C@@H](C)O)NC(=O)[C@H](CC(C)C)N(C)C1=O` [pd157] ([dA][NMePhe(3-Cl)]L[NMeL]T[Sar][NMeV]S(tBu)[NMeF][NMeL]D-Piperidide; lactam N-11) yielded a Papp A→B at 180 min of 2.2 ×10⁻⁶ cm/s. For `CC[C@H](C)[C@@H]1NC(=O)[C@H](Cc2ccccc2)N(C)C(=O)CN(C)C(=O)C[C@@H](C(=O)N2CCCCC2)NC(=O)[C@H](C(C)C)N(C)C(=O)[C@H](COC(C)(C)C)NC(=O)[C@H](CC(C)C)N(C)C(=O)[C@H](Cc2cccc(Cl)c2)N(C)C(=O)CN(C)C(=O)[C@H]([C@@H](C)O)NC(=O)[C@H](CC(C)C)N(C)C1=O` [pd158] ([Sar][NMeF]I[NMeL]T[Sar][NMePhe(3-Cl)][NMeL]S(tBu)[NMeV]D-Piperidide; lactam N-11), the Papp A→B at 180 min was 1.4 ×10⁻⁶ cm/s. `CC(C)C[C@H]1C(=O)N[C@@H](COC(C)(C)C)C(=O)N(C)[C@@H](Cc2ccccc2)C(=O)N(C)[C@@H](CC(C)C)C(=O)N(C)[C@H](C(=O)N2CCCCC2)CC(=O)N[C@H](C)C(=O)N(C)[C@@H](Cc2cccc(Cl)c2)C(=O)N[C@@H](C(C)C)C(=O)N(C)[C@@H](C(C)C)C(=O)N[C@@H]([C@@H](C)O)C(=O)N(C)CC(=O)N1C` [pd159] ([dA][NMePhe(3-Cl)]V[NMeV]T[Sar][NMeL]S(tBu)[NMeF][NMeL][NMeD]-Piperidide; lactam N-11) showed a Papp A→B at 180 min of 1.8 ×10⁻⁶ cm/s. Compound `CC(C)C[C@H]1C(=O)N[C@@H](COC(C)(C)C)C(=O)N(C)[C@@H](Cc2ccccc2)C(=O)N(C)[C@@H](CC(C)C)C(=O)N(C)[C@H](C(=O)N2CCCCC2)CC(=O)N[C@@H](C)C(=O)N(C)[C@@H](Cc2cccc(Cl)c2)C(=O)N[C@@H](C(C)C)C(=O)N(C)[C@@H](C(C)C)C(=O)N[C@@H]([C@@H](C)O)C(=O)N(C)CC(=O)N1C` [pd160] (A[NMePhe(3-Cl)]V[NMeV]T[Sar][NMeL]S(tBu)[NMeF][NMeL][NMeD]-Piperidide; lactam N-11) has a Papp A→B at 180 min of 3.4 ×10⁻⁶ cm/s. With `CC(C)C[C@@H]1NC(=O)[C@H](C)N(C)C(=O)C[C@@H](C(=O)N2CCCCC2)NC(=O)[C@H](CC(C)C)N(C)C(=O)CN(C)C(=O)[C@H]([C@@H](C)O)NC(=O)[C@H](CC(C)C)N(C)C(=O)[C@H](Cc2cccc(Cl)c2)N(C)C(=O)[C@H](C)NC(=O)[C@H](Cc2ccccc2)N(C)C(=O)[C@H](CC(C)C)N(C)C1=O` [pd161] ([NMeA]L[NMeL][NMeF]A[NMePhe(3-Cl)][NMeL]T[Sar][NMeL]D-Piperidide; lactam N-11) the Papp A→B at 180 min was 1.4 ×10⁻⁶ cm/s. Compound `CC[C@@H]1NC(=O)[C@H](C(C)C)N(C)C(=O)[C@@H](C(C)C)NC(=O)C[C@@H](C(=O)N2CCCCC2)NC(=O)[C@H](CC(C)C)N(C)C(=O)[C@H](Cc2cccc(Cl)c2)N(C)C(=O)[C@H](COC(C)(C)C)NC(=O)[C@H](CC(C)C)N(C)C(=O)CN(C)C(=O)[C@H](Cc2cccnc2)NC(=O)[C@H](CC(C)C)N(C)C1=O` [pd164] ([dV][NMeV][Abu][NMeL][3Pal][Sar][NMeL]S(tBu)[NMePhe(3-Cl)][NMeL]D-Piperidide; lactam N-11) has a Papp A→B at 180 min of 1.6 ×10⁻⁶ cm/s.

Same assay, conditions: human, Caco-2, improved method, preincubation 20 to 24 hours; Papp, sample at 180 minutes; read-out: Caco-2
Work on `CCCN1CC(=O)N[C@@H]([C@@H](C)O)C(=O)N[C@H](C(=O)N2CCCCC2)CC(=O)N(C)[C@@H](CC(C)C)C(=O)N[C@@H](Cc2ccc(C(F)(F)F)cc2)C(=O)N(C)[C@@H](CC(C)C)C(=O)N(C)[C@@H](CC(C)C)C(=O)N[C@@H](COC(C)(C)C)C1=O` [pd147] ([NMeL][Phe(4-CF3)][NMeL][NMeL]S(tBu)[NPrGly]TD-Piperidide; lactam N-8) yielded a Papp A→B at 180 min of 1.9 ×10⁻⁶ cm/s.

Same assay, conditions: human, Caco-2; read-out: Caco-2
With `CC(C)C[C@@H]1NC(=O)[C@H](CC(C)C)N(C)C(=O)[C@H](C(C)C)NC(=O)C[C@@H](C(=O)N2CCCCC2)NC(=O)[C@H](CC(C)C)N(C)C(=O)[C@H]([C@@H](C)O)NC(=O)[C@H](Cc2ccc(C(F)(F)F)cc2)NC(=O)[C@H](CC(C)C)N(C)C(=O)[C@H](C)N(C)C1=O` [pd146] (V[NMeL]L[NMeA][NMeL][Phe(4-CF3)]T[NMeL]D-Piperidide; lactam N-9) the Papp A→B at 180 min was 1.7 ×10⁻⁶ cm/s.

— US20200131669A1, “CYCLIC PEPTIDE COMPOUND HAVING HIGH MEMBRANE PERMEABILITY, AND LIBRARY CONTAINING SAME” (Chugai Seiyaku Kabushiki Kaisha, priority 2017, published 2020)
